From patent US20080161255A1, “Use of Parp Inhibitors for Prevention and Treatment of Diabetic and Insulin Resistance Complications” (priority 2003, published 2008) come the findings set out here.

The test system of one experiment is prostacyclin synthetase. Description: Arterial prostacyclin synthetase activity in insulin resistant Fatty Zucker Rats. Type of experiment: in vivo. Particulars: Fatty Zucker Rats treated for one week; untreated had only 1% of control Zucker rat activity. An excerpt: In order to examine whether this phenomenon was present in vivo, and thus had direct clinical relevance, we studied an accepted model of non-diabetic insulin resistance, the Fatty Zucker Rat. In these rats, we examined the activity of the endothelial cell surface enzyme prostacyclin synthetase, which produces a major anti-atherosclerotic product, prostacyclin. This enzyme is known to be directly inactivated by reactive oxygen species.

Experiment [1] deals with intracellular AGE formation. Description: Intracellular advanced glycation endproduct formation (quantitative immunoblotting). In kind it is cell-based, bovine. Particulars: 30 mM glucose plus PJ34. The procedure: (§1) Cell culture conditions. Confluent bovine aortic endothelial cells (passage 4-10) were maintained in Eagle's MEM containing 0.4% FBS, essential and non-essential amino acid and antibiotics. Cells were incubated for 3 days prior to determination of PKC activity, 48 hr prior to determination of hexosamine pathway activity, for 5 days prior to determination of advanced glycation end product formation, and for 6 hr prior to determination of NFκB activation. Cells were infected with adenoviruses 48 hr prior to addition of 30 mM glucose.
Advanced glycation endproducts. Equal amounts of cell extract protein were used for quantitative immunoblotting performed as described (14). Methylglyoxal-derived imidazole advanced glycation endproducts were detected using monoclonal antibody 1H7G5 (identified above as IG7) at a 1:10,000 dilution. Immunocomplexes were visualized using an ECF kit according to the manufacturer's instructions (Amersham International, Piscataway, N.J.) and quantified using a Molecular Dynamics FluorImager and its ImageQuant 4.0 analytical software.
(In general: Immunoblotting shows a protein as a band on a membrane.)

Experiment [2] has as its system GAPDH. Nature of the experiment: Poly(ADP-ribosyl)ation of GAPDH (immunoprecipitation and western blotting). In kind it is cell-based, bovine. The following applies: adenoviral overexpression or 3 mM PJ34. The protocol: Immunoprecipitation. BAECs were plated in 100 mm cell culture plates and grown to confluency. Cells (2×10^7) were scraped from the plates, and 500 μg of protein was immunoprecipitated with 4 μg of the indicated antibody and 20 μl of Protein A Sepharose 4B (Amersham Phamacia Biotech) in binding buffer (final concentration […]).
Western blotting. Immunoprecipitated proteins electrophoresed on 10% PAGE gels were transferred onto nitrocellulose membranes. The immunoblots were developed with 1:1000 dilutions of anti-poly(ADPribose) IgG, and the signal was detected with the ECL System according to the manufacturer's instructions (Amersham Pharmacia Biotech). The images were scanned into a Molecular Dynamics FluorImager and analyzed using the ImageQuant 5.5 program.

The subject of a further experiment is protein kinase C. Description: Protein kinase C activity (membrane fraction) in bovine aortic endothelial cells. In kind it is cell-based. Particulars: 30 mM glucose plus PJ34. The protocol: as §1
Protein kinase C activity. The assay was performed according to the manufacturer's instructions using the Protein Kinase C Assay System (Invitrogen, Carlsbad, Calif.).

The test system of experiment [3] is GAPDH. Nature of the experiment: GAPDH activity in bovine aortic endothelial cells. Type of experiment: cell-based. The following applies: 30 mM glucose; adenoviral overexpression or 3 mM PJ34. The protocol:
Cell culture conditions. Confluent bovine aortic endothelial cells (passage 4-10) were maintained in Eagle's MEM containing 0.4% FBS, essential and non-essential amino acid and antibiotics. […] Cells were infected with adenoviruses 48 hr prior to addition of 30 mM glucose. Oligonucleotide synthesis and treatment of cells. […] The S-antisense GAPDH had the following sequence: [NT]. Scrambled oligonucleotides ([NT]) were used as controls. Oligo solutions were prepared in 10 mM TRIS buffer, pH 7.4, containing 1 mM EDTA NaCl. […], and the solution was added to the cells for 2 hr. GAPDH activity. BAECs were grown to confluency, harvested by using trypsin-EDTA after washing twice with PBS, and resuspended in lysis buffer. […] Protein was measured by using the Bio-Rad Coomassie Plus Protein Assay System. GAPDH activity was determined as described previously (Garcia et al., 2001; Tau et al., 1994).

The subject of the next experiment is NFκB. Description: NFκB activation (fluorescence in situ DNA-protein binding assay). In kind it is cell-based, bovine. Particulars: 30 mM glucose plus PJ34. The protocol:
as §1
NFκB activation. A fluorescence in situ DNA-protein binding assay was performed in cultured cells as described (Kurose et al., 1997), and fluorescence per cell was determined using IP Lab Spectrum (Scanalytics, Fairfax, Va.).

The next experiment concerns hexosamine pathway. Nature of the experiment: Hexosamine pathway activity (UDP-GlcNAc concentration by HPLC). Type of experiment: cell-based, bovine. Particulars: 30 mM glucose plus PJ34. The procedure:
as §1
Hexosamine pathway activity. Hexosamine pathway activity was assessed by measuring UDP-GlcNAc concentration. Cells were homogenized in three volumes (600 μl) of cold 0.6 M perchloric acid and kept at 0° C. for 10 min. The precipitated proteins were removed by centrifugation for 5 min at 13,500×g, and UDP-GlcNAc in the supernatant was determined by HPLC as previously described (13).

In experiment [4] the test system is bovine aortic endothelial cells. Nature of the experiment: FFA-induced superoxide / reactive oxygen species generation in endothelial cells. Type of experiment: cell-based. Particulars: FFA-treated endothelial cells. From the text:
FIG. 8 is a graph of experimental data showing the effects of inhibitors of free fatty acid (FFA) oxidation (TDGA), UCP-1, and MnSOD on FFA-induced superoxide generation in bovine aortic endothelial cells.
Since mitochondrial β-oxidation of fatty acids yields the same electron donors as those obtained from glucose metabolism, that is, NADH and FADH2, we hypothesized that increased free fatty acid flux from adipose tissue to vascular endothelium would also increase mitochondrial production of superoxide.

The target of experiment [5] is T1, poly(ADP-ribose) polymerase (Bos taurus, UniProt P18493).
T1 construct: endogenous in cells; host or cells: bovine aortic endothelial cells
Description: Poly(ADP-ribose) polymerase activity in aortic endothelial cells. Type of experiment: cell-based, bovine. Particulars: aortic endothelial cells incubated with oleic acid at levels found in non-diabetic insulin resistance subjects. The procedure:
Poly(ADP-ribose) polymerase activity. Cells were incubated for 5 min at 37° C. in assay buffer containing 125 nmol NAD^+ spiked with 0.25 μCi of ^3H-NAD^+ (Amersham) as described (12). Enzyme activity was determined by measuring cpm incorporated into protein.

T1 sequence (P18493 whole entry): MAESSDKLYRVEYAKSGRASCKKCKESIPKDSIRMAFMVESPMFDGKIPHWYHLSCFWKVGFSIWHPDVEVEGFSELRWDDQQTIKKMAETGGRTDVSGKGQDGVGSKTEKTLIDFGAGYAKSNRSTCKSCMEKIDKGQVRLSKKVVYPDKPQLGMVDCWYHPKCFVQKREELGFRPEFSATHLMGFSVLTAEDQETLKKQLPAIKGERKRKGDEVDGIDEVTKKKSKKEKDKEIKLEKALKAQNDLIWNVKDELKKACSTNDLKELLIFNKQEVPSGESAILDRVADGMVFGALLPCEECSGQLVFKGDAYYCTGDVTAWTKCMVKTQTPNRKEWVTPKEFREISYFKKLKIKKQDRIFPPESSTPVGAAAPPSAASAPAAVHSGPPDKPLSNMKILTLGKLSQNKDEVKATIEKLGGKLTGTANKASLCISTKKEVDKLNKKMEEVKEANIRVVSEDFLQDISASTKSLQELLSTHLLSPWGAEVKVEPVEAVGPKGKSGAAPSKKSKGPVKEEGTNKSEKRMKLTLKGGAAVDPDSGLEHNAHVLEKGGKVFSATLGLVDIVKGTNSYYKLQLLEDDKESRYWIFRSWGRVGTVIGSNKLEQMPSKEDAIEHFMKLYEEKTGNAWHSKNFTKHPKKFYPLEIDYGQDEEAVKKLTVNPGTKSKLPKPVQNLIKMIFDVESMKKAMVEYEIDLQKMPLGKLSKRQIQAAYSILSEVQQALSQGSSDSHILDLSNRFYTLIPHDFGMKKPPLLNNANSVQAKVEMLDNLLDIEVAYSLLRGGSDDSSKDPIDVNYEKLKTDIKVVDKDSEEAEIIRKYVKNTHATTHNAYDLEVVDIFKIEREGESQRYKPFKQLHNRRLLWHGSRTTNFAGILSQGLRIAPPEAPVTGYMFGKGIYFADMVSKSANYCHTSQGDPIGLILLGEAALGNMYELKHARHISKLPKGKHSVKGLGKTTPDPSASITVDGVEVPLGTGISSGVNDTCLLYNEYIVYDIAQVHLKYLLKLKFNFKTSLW

For `O=C(O)c1ccc(-c2c3nc(c(-c4ccc(C(=O)O)cc4)c4ccc([n-]4)c(-c4ccc(C(=O)O)cc4)c4nc(c(-c5ccc(C(=O)O)cc5)c5ccc2[n-]5)C=C4)C=C3)cc1.[Mn+3]` [MnTBAP, Manganese (III) tetrakis(4-benzoic acid) porphyrin], the “activity of prostacyclin synthetase in aortas” value with prostacyclin synthetase is on record as “restored to supranormal levels”.

For the compound `CN(C)CC(=O)Nc1ccc2[nH]c(=O)c3ccccc3c2c1` [PJ34, N-(oxo-5,6-dihdrophenanthridin-2-yl)-N,N-dimethylacetamide], the “effect of 30 mM glucose on intracellular AGE formation” value in experiment [1] is recorded as “completely prevented”. The “poly(ADP-ribosyl)ation of GAPDH induced by 30 mM glucose” value in the experiment on GAPDH [2] is given as “completely prevented”. Further, the “activation of PKC by 30 mM glucose” value with protein kinase C is given as “completely prevented”. Moreover, the “hyperglycemia-induced inhibition of GAPDH activity” value in the experiment with GAPDH [3] is “prevention”. In the experiment with NFκB, the “effect of 30 mM glucose on NFκB activation” value is “completely prevented”. Moreover, the “effect of 30 mM glucose on UDP-N-acetylglucosamine concentration (hexosamine pathway)” value with hexosamine pathway was “completely prevented”.

Regarding `CCCCCCCCCCCCCCC1(C(=O)O)CO1` (stereo not shown) [TDGA], the “ability of FFAs to induce reactive oxygen species in endothelial cells” value in [4] is “inhibited”.

`O=C(O)c1cccnc1` [nicotinic acid]: the “activity of prostacyclin synthetase in aortas” value in the experiment on prostacyclin synthetase is “restored to normal levels”.

Regarding `CCCCCCCC/C=C\CCCCCCCC(=O)O` [oleic acid], the “increase of PARP activation” value in [5] came out at 1.5 fold.
